Values of other authors, collected in US20050004224A1, “Treatment of Alzheimer's disease with the R(-) isomer of a 2-arylpropionic acid non-steroidal anti-inflammatory drug alone or in combination with a cyclooxygenase-2 selective inhibitor” (Pharmacia Corporation, priority 2003, published 2005).

What was measured:
[1] = Asanuma et al. 2001
[2] = tested on: patients with osteoarthritis; conditions: Singer et al. 2000
A-beta 1-42 peptide = conditions: Weggen et al. 2001
[3] = Lambat et al. 2000
[4] = Lambat et al. 2000; remark: listed apart in the source
AD models = conditions: chronic ibuprofen; some AD models; Lim et al. 2001
murine cells = conditions: Ogawa et al. 2000
neuronal cells = conditions: Blasko et al. 2001

Compound	production of the amyloidogenic A-beta 1-42 peptide (A-beta 1-42 peptide)	beta-amyloid protein and interferon-gamma-induced NO production (murine cells)	further results
CC(C(=O)O)c1cccc(C(=O)c2ccccc2)c1 (stereo not drawn) [ketoprofen]			nitric oxide-scavenging ability [1]: have such activity
CC(C)Cc1ccc([C@H](C)C(=O)O)cc1 (single isomer, unassigned) [S(+) isomer of ibuprofen]			effective NSAID for patients with osteoarthritis [2]: effective
CSc1ccc(/C=C2/C(C)=C(CC(=O)O)c3cc(F)ccc32)cc1 [sulindac sulfide]	reduced		
CC(C)Cc1ccc(C(C)C(=O)O)cc1 (stereo not drawn) [ibuprofen, α-methyl-4-[isobutyl]phenylacetic acid]	reduced	reduced	cyanide-induced speroxide production [3]: reducing; quinolinic acid-induced lipid peroxidation [4]: reducing; inflammation and plaque-related pathology (AD models): suppress; cytokine-induced amyloid Beta production (neuronal cells): reduced
COc1ccc2c(c1)c(CC(=O)O)c(C)n2C(=O)c1ccc(Cl)cc1 [indomethacin]	reduced	reduced	
CC(=O)Oc1ccccc1C(=O)O [aspirin]		did not produce such an effect	
